# Target: purified human, His-tagged PRC2 complex (Homo sapiens (Human), UniProt O75530)
# Test: Hot Spot HMT assay, inhibition of PRC2 enzymatic activity
# Assay type: biochemical
# Settings: 10 nM PRC2 complex, 1 μM 3H-SAM, core histone H3, 10-point dose-response
# Summary of the method: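 Five-subunit PRC2 complex (EZH2, EED, SUZ12, AEBP2, RbAp48; 10 nM) preincubated 20 min at 30° C with compound (top 1.0 μM) and 0.05 mg/ml core histone H3 in Tris-HCl, 1% DMSO. Started with 1 μM [3H]SAM, 1 hr at 30° C; tritiated H3 measured by filter binding and scintillation.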
# purified human, His-tagged PRC2 complex, sequence (O75530 whole entry): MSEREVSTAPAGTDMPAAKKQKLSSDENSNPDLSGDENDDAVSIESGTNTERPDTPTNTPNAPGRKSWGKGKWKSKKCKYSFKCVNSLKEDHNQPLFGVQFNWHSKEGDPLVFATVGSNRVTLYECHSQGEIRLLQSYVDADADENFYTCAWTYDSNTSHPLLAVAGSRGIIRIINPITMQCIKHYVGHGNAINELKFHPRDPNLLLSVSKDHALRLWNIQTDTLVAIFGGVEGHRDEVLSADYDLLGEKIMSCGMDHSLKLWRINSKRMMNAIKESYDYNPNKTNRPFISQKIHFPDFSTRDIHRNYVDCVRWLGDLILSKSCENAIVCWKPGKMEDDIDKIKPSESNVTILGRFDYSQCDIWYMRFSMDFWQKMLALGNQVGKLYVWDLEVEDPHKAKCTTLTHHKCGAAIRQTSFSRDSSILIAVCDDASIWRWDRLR
# purified human, His-tagged PRC2 complex, sequence (Q15910 whole entry partner): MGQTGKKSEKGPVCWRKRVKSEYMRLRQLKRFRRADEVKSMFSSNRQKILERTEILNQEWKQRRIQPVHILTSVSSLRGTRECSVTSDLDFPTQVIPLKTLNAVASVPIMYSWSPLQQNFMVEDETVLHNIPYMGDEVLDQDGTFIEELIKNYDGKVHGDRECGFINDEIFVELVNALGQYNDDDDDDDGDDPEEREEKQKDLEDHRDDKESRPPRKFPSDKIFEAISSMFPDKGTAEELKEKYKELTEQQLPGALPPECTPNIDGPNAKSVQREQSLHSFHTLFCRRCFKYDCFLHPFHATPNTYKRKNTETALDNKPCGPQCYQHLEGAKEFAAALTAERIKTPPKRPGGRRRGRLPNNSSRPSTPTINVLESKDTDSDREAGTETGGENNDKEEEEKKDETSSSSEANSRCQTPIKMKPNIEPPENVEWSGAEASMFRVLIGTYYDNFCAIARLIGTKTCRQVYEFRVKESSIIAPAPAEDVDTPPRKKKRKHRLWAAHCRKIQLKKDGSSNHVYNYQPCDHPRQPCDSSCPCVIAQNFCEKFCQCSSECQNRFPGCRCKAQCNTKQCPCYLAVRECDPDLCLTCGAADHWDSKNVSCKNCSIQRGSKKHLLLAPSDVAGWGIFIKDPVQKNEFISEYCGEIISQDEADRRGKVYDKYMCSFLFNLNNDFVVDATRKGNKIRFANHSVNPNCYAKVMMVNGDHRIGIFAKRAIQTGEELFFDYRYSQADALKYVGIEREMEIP
# purified human, His-tagged PRC2 complex, sequence (Q15022 whole entry partner): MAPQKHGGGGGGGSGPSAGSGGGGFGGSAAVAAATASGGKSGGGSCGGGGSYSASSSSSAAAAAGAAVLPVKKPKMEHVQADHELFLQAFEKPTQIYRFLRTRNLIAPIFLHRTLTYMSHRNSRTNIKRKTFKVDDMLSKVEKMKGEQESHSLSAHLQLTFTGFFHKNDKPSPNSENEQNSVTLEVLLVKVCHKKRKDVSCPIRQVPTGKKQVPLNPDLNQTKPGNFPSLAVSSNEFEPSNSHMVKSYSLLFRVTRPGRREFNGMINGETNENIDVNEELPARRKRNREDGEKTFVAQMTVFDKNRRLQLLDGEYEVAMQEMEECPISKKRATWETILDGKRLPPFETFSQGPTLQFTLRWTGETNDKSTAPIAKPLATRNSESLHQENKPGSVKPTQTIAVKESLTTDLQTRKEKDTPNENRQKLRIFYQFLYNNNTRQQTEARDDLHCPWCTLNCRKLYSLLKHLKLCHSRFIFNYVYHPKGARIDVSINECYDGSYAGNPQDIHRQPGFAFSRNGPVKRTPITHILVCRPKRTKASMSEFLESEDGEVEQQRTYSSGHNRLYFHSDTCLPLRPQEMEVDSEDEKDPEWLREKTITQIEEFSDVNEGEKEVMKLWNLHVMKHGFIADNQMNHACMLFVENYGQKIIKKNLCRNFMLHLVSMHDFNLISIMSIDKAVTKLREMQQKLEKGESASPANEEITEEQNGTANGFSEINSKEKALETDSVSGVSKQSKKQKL
# purified human, His-tagged PRC2 complex, sequence (Q6ZN18 whole entry partner): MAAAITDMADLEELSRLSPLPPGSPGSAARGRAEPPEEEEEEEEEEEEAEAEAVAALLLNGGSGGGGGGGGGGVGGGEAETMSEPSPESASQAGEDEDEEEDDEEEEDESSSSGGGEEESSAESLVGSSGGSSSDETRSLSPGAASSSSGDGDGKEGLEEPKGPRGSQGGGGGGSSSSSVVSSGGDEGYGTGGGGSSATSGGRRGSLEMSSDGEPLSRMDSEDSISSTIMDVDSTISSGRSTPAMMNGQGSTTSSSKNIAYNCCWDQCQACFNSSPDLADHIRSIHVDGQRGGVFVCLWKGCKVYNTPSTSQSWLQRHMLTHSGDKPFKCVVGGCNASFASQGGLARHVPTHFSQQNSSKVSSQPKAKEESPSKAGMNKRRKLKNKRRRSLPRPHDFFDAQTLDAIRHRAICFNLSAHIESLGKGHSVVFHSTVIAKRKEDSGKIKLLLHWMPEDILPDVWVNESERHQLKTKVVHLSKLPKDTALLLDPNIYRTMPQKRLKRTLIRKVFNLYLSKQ
# purified human, His-tagged PRC2 complex, sequence (Q09028 whole entry partner): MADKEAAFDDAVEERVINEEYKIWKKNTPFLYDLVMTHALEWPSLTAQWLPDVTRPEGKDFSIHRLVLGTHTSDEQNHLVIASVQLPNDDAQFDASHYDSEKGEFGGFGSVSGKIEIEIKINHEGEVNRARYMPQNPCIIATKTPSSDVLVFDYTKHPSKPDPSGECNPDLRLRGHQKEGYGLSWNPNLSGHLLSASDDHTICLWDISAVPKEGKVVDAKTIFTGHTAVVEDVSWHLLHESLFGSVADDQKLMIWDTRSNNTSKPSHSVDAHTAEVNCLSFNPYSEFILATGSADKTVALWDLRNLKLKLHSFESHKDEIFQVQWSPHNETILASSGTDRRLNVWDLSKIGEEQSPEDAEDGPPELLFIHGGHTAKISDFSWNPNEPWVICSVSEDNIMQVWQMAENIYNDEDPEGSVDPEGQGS
row,SMILES,IC50 [nM]
1,"COc1ncc(-c2cnc(NCc3c(F)ccc4c3CCO4)n3cc(C#N)nc23)cc1C#N [Example 130, 8-(5-cyano-6-methoxypyridin-3-yl)-5-(((5-fluoro-2,3-dihydrobenzofuran-4-yl)methyl)amino)imidazo[1,2-c]pyrimidine-2-carbonitrile]",100 to 500
2,"CC(=O)Nc1cc(-c2cnc(NCc3c(F)ccc4c3CCO4)n3cc(C#N)nc23)ccn1 [Example 131, N-(4-(2-cyano-5-(((5-fluoro-2,3-dihydrobenzofuran-4-yl)methyl)amino)imidazo[1,2-c]pyrimidin-8-yl)pyridin-2-yl)acetamide]",< 100
3,"N#Cc1cn2c(NCc3c(F)ccc4c3CCO4)ncc(-c3cncc(C(F)(F)F)c3)c2n1 [Example 132, 5-(((5-fluoro-2,3-dihydrobenzofuran-4-yl)methyl)amino)-8-(5-(trifluoromethyl)pyridin-3-yl)imidazo[1,2-c]pyrimidine-2-carbonitrile]",> 500
4,"CC(C)Oc1ccc(-c2cnc(NCc3c(F)ccc4c3CCO4)n3cc(C#N)nc23)cn1 [Example 133, 5-(((5-fluoro-2,3-dihydrobenzofuran-4-yl)methyl)amino)-8-(6-isopropoxypyridin-3-yl)imidazo[1,2-c]pyrimidine-2-carbonitrile]",< 100
5,"N#Cc1cn2c(NCc3c(F)ccc4c3CCO4)ncc(-c3cnc(N)c(C(F)(F)F)c3)c2n1 [Example 134, 8-(6-amino-5-(trifluoromethyl)pyridin-3-yl)-5-(((5-fluoro-2,3-dihydrobenzofuran-4-yl)methyl)amino)imidazo[1,2-c]pyrimidine-2-carbonitrile]",100 to 500
6,"N#Cc1cn2c(NCc3c(F)ccc4c3CCO4)ncc(-c3ccc(N4CCCCC4)nc3)c2n1 [Example 135, 5-(((5-fluoro-2,3-dihydrobenzofuran-4-yl)methyl)amino)-8-(6-(piperidin-1-yl)pyridin-3-yl)imidazo[1,2-c]pyrimidine-2-carbonitrile]",< 100
7,"Cc1nc(N2CCN(C)CC2)ccc1-c1cnc(NCc2c(F)ccc3c2CCO3)n2cc(C#N)nc12 [Example 136, 5-(((5-fluoro-2,3-dihydrobenzofuran-4-yl)methyl)amino)-8-(2-methyl-6-(4-methylpiperazin-1-yl)pyridin-3-yl)imidazo[1,2-c]pyrimidine-2-carbonitrile]",100 to 500
8,"Cc1ncccc1-c1cnc(NCc2c(F)ccc3c2CCO3)n2cc(C(N)=O)nc12 [Example 137, 5-(((5-fluoro-2,3-dihydrobenzofuran-4-yl)methyl)amino)-8-(2-methylpyridin-3-yl)imidazo[1,2-c]pyrimidine-2-carboxamide]",< 100
9,"Cc1nc(N2CCN(C)CC2)ccc1-c1cnc(NCc2c(F)ccc3c2CCO3)n2cc(C(N)=O)nc12 [Example 138, 5-(((5-fluoro-2,3-dihydrobenzofuran-4-yl)methyl)amino)-8-(2-methyl-6-(4-methylpiperazin-1-yl)pyridin-3-yl)imidazo[1,2-c]pyrimidine-2-carboxamide]",< 100
10,"N#Cc1cn2c(NCc3c(F)ccc4c3CCO4)ncc(C3CCOCC3)c2n1 [Example 141, 5-(((5-fluoro-2,3-dihydrobenzofuran-4-yl)methyl)amino)-8-(tetrahydro-2H-pyran-4-yl)imidazo[1,2-c]pyrimidine-2-carbonitrile]",> 500
11,"N#Cc1cn2c(NCc3c(F)ccc4c3CCO4)ncc(-c3cccnn3)c2n1 [Example 142, 5-(((5-fluoro-2,3-dihydrobenzofuran-4-yl)methyl)amino)-8-(pyridazin-3-yl)imidazo[1,2-c]pyrimidine-2-carbonitrile]",< 100
12,"Cn1nncc1-c1cnc(NCc2c(F)ccc3c2CCO3)n2cc(C#N)nc12 [Example 143, 5-(((5-fluoro-2,3-dihydrobenzofuran-4-yl)methyl)amino)-8-(1-methyl-1H-1,2,3-triazol-5-yl)imidazo[1,2-c]pyrimidine-2-carbonitrile]",< 100
13,"Cn1nc(C2CC2)cc1-c1cnc(NCc2c(F)ccc3c2CCO3)n2cc(C#N)nc12 [Example 144, 8-(3-cyclopropyl-1-methyl-1H-pyrazol-5-yl)-5-(((5-fluoro-2,3-dihydrobenzofuran-4-yl)methyl)amino)imidazo[1,2-c]pyrimidine-2-carbonitrile]",< 100
14,"Cc1nc(-c2cnc(NCc3c(F)ccc4c3CCO4)n3cc(C#N)nc23)c(C)s1 [Example 145, 8-(2,5-dimethylthiazol-4-yl)-5-(((5-fluoro-2,3-dihydrobenzofuran-4-yl)methyl)amino)imidazo[1,2-c]pyrimidine-2-carbonitrile]",100 to 500
15,"N#Cc1cn2c(NCc3c(F)ccc4c3CCO4)ncc(-c3ccccn3)c2n1 [Example 146, 5-(((5-fluoro-2,3-dihydrobenzofuran-4-yl)methyl)amino)-8-(pyridin-2-yl)imidazo[1,2-c]pyrimidine-2-carbonitrile]",100 to 500

# Other lines, results leading:
row,IC50 [nM],SMILES
1,100 to 500,"N#Cc1cn2c(NCc3c(F)ccc4c3CCO4)ncc(-c3ccc(CO)nc3)c2n1 [Example 147, 5-(((5-fluoro-2,3-dihydrobenzofuran-4-yl)methyl)amino)-8-(6-(hydroxymethyl)pyridin-3-yl)imidazo[1,2-c]pyrimidine-2-carbonitrile]"
2,< 100,"N#Cc1cn2c(NCc3c(F)ccc4c3CCO4)ncc(-c3cccnc3CO)c2n1 [Example 148, 5-(((5-fluoro-2,3-dihydrobenzofuran-4-yl)methyl)amino)-8-(2-(hydroxymethyl)pyridin-3-yl)imidazo[1,2-c]pyrimidine-2-carbonitrile]"
3,100 to 500,"CN(C)Cc1c(F)cc(-c2cnc(NCc3c(F)ccc4c3CCO4)n3cc(C#N)nc23)cc1F [Example 149, 8-(4-((dimethylamino)methyl)-3,5-difluorophenyl)-5-(((5-fluoro-2,3-dihydrobenzofuran-4-yl)methyl)amino)imidazo[1,2-c]pyrimidine-2-carbonitrile]"
4,< 100,"N#Cc1cn2c(NCc3c(F)ccc4c3CCO4)ncc(-c3ccc(CN4CC(O)C4)cc3)c2n1 [Example 150, 5-(((5-fluoro-2,3-dihydrobenzofuran-4-yl)methyl)amino)-8-(4-((3-hydroxyazetidin-1-yl)methyl)phenyl)imidazo[1,2-c]pyrimidine-2-carbonitrile]"
5,< 100,"N#Cc1cn2c(NCc3c(F)ccc4c3CCO4)ncc(-c3ccc(CN4CCC(O)C4)cc3)c2n1 (stereo not drawn) [Example 151, 5-(((5-fluoro-2,3-dihydrobenzofuran-4-yl)methyl)amino)-8-(4-((3-hydroxypyrrolidin-1-yl)methyl)phenyl)imidazo[1,2-c]pyrimidine-2-carbonitrile]"
6,100 to 500,"Cc1nc(CN(C)C)ccc1-c1cnc(NCc2c(F)ccc3c2CCO3)n2cc(C#N)nc12 [Example 152, 8-(6-((dimethylamino)methyl)-2-methylpyridin-3-yl)-5-(((5-fluoro-2,3-dihydrobenzofuran-4-yl)methyl)amino)imidazo[1,2-c]pyrimidine-2-carbonitrile]"
7,100 to 500,"N#Cc1cn2c(NCc3c(F)ccc4c3CCO4)ncc(-c3ccn(CC4CCCO4)n3)c2n1 (stereo not drawn) [Example 153, 5-(((5-fluoro-2,3-dihydrobenzofuran-4-yl)methyl)amino)-8-(1-((tetrahydrofuran-2-yl)methyl)-1H-pyrazol-3-yl)imidazo[1,2-c]pyrimidine-2-carbonitrile]"
8,100 to 500,"N#Cc1cn2c(NCc3c(F)ccc4c3CCO4)ncc(-c3cnn(CC4CCOC4)c3)c2n1 (stereo not drawn) [Example 154, 5-(((5-fluoro-2,3-dihydrobenzofuran-4-yl)methyl)amino)-8-(1-((tetrahydrofuran-3-yl)methyl)-1H-pyrazol-4-yl)imidazo[1,2-c]pyrimidine-2-carbonitrile]"
9,< 100,"Cc1cc(-c2cnc(NCc3c(F)ccc4c3C(O)CO4)n3cc(C#N)nc23)n(C)n1 (stereo not drawn) [Example 155, 8-(1,3-dimethyl-1H-pyrazol-5-yl)-5-(((5-fluoro-3-hydroxy-2,3-dihydrobenzofuran-4-yl)methyl)amino)imidazo[1,2-c]pyrimidine-2-carbonitrile]"
10,100 to 500,"Cn1cccc(-c2cnc(NCc3c(F)ccc4c3CCO4)n3cc(C#N)nc23)c1=O [Example 156, 5-(((5-fluoro-2,3-dihydrobenzofuran-4-yl)methyl)amino)-8-(1-methyl-2-oxo-1,2-dihydropyridin-3-yl)imidazo[1,2-c]pyrimidine-2-carbonitrile]"
11,< 100,"Cn1nc(C(=O)O)cc1-c1cnc(NCc2c(F)ccc3c2CCO3)n2cc(C#N)nc12 [Example 157, 5-(2-cyano-5-(((5-fluoro-2,3-dihydrobenzofuran-4-yl)methyl)amino)imidazo[1,2-c]pyrimidin-8-yl)-1-methyl-1H-pyrazole-3-carboxylic acid]"
12,100 to 500,"COCCOc1ccc(-c2cnc(NCc3c(F)ccc4c3CCO4)n3cc(C#N)nc23)cn1 [Example 158, 5-(((5-fluoro-2,3-dihydrobenzofuran-4-yl)methyl)amino)-8-(6-(2-methoxyethoxy)pyridin-3-yl)imidazo[1,2-c]pyrimidine-2-carbonitrile]"
13,100 to 500,"CN1CCc2cc(-c3cnc(NCc4c(F)ccc5c4CCO5)n4cc(C#N)nc34)ccc2C1 [Example 159, 5-(((5-fluoro-2,3-dihydrobenzofuran-4-yl)methyl)amino)-8-(2-methyl-1,2,3,4-tetrahydroisoquinolin-6-yl)imidazo[1,2-c]pyrimidine-2-carbonitrile]"
14,< 100,"CN1CCCC1c1ccc(-c2cnc(NCc3c(F)ccc4c3CCO4)n3cc(C#N)nc23)cc1 (stereo not drawn) [Example 160, 5-(((5-fluoro-2,3-dihydrobenzofuran-4-yl)methyl)amino)-8-(4-(1-methylpyrrolidin-2-yl)phenyl)imidazo[1,2-c]pyrimidine-2-carbonitrile]"
15,< 100,"COCCOc1ccc(-c2cnc(NCc3c(F)ccc4c3CCO4)n3cc(C#N)nc23)cc1 [Example 161, 5-(((5-fluoro-2,3-dihydrobenzofuran-4-yl)methyl)amino)-8-(4-(2-methoxyethoxy)phenyl)imidazo[1,2-c]pyrimidine-2-carbonitrile]"

# From patent publication US20240398811A1, “PRC2 INHIBITORS FOR USE IN TREATING BLOOD DISORDERS” (ORIC Pharmaceuticals, Inc., priority 2021, published 2024)
